# Laboratory results from patent US20220133837A1, “PEPTIDE INHIBITORS OF NF KAPPA B AND USE THEREOF IN TREATMENT OF COVID-19 AND INFLAMMATORY DISEASES” (priority 2020, published 2022).
# Read-outs that look alike come from different tables or passages of the source. Non-standard residues stand in square brackets, D forms with d. Residues, ends and D or L forms follow the SMILES beside them. No end group written: not given here.
# Experiments:
# NFKB2 = assay type: cell-based, human; settings: control cells set at 1.000, cells harvested after 24 hours
# ACE2 receptor = assay type: cell-based, human; settings: control cells set at 1.000, cells harvested after 24 hours
# TMPRSS2 = assay type: cell-based, human; settings: control cells set at 1.000, cells harvested after 24 hours
# CCL2 = assay type: cell-based, human; settings: control cells set at 1.000, cells harvested after 24 hours
# IL1B = assay type: cell-based, human; settings: control cells set at 1.000, cells harvested after 24 hours
# ILIA = assay type: cell-based, human; settings: control cells set at 1.000, cells harvested after 24 hours
# TNFRSF9 = assay type: cell-based, human; settings: control cells set at 1.000, cells harvested after 24 hours
# TNFRSF1A = assay type: cell-based, human; settings: control cells set at 1.000, cells harvested after 24 hours
# CXCL8 = assay type: cell-based, human; settings: control cells set at 1.000, cells harvested after 24 hours
# [1] = tested on: carrageenan (CAR) induced inflammation model; assay: Carrageenan (CAR) induced paw edema model; assay type: in vivo; settings: rat, peptide 70 ng, 1 nanomole injected 30 minutes after CAR; for Edema, change in paw volume after CAR injection: sub-plantar CAR 100 μL of 1% suspension, plethysmometer hourly for 24 h, versus control animals
# Excerpt: The anti-inflammatory activity of YMAP[D]EV (SEQ ID NO:116) was also examined in a classical carrageenan (CAR) induced inflammation model (Ivan G. Otterness, Peter F. Moore, Carrageenan foot edema test, Methods in Enzymology, Academic Press, Volume 162, 1988, Pages 320-327, (see URL www.sciencedirect.com/science/article/pii/0076687988620866); Fehrenbacher J C et al., Models of inflammation: Carrageenan- or complete Freund's Adjuvant (CFA)-induced edema and hypersensitivity in the rat. Curr Protoc Pharmacol. 2012 March; Chapter 5m Unit5.4, doi:10.1002/0471141755.ph0504s56. PMID: 22382999; PMCID: PMC4683998.). Paw edema was induced by a sub-plantar injection of CAR (100 μL of a 1% suspension in 0.85% saline). In the treatment group, YMAP[D]EV (SEQ ID NO:116) (70 ng, 1 nanomole) was injected 30 minutes after CAR injection. Changes in paw volume were measured using a plethysmometer immediately before CAR injection, and then at hourly intervals for 24 h. Edema was expressed as change in paw volume (mL) after CAR injection relative to the pre-injection value for each rat.
# IL6 = assay type: cell-based, human; settings: control cells set at 1.000, cells harvested after 24 hours
# NFKB1 = assay type: cell-based, human; settings: control cells set at 1.000, cells harvested after 24 hours
# CCL5 = assay type: cell-based, human; settings: control cells set at 1.000, cells harvested after 24 hours
# TNF = assay type: cell-based, human; settings: control cells set at 1.000, cells harvested after 24 hours
molecule,measurement,setting,value
"CSCC[C@H](NC(=O)[C@@H](N)Cc1ccc(O)cc1)C(=O)N[C@@H](C)C(=O)N1CCC[C@H]1C(=O)N[C@H](CCC(=O)O)C(=O)N[C@H](C(=O)O)C(C)C [PEP2, L-tyrosyl-L-methionyl-L-alanyl-L-prolyl-D-glutamyl-L-valine] (H-YMAP[dE]V-OH)","NFKB2 RNA expression, ratio of treated cells to control cells",NFKB2; DriverMap gene analysis,0.138
same,"ACE2 receptor RNA expression, ratio of treated cells to control cells",ACE2 receptor; DriverMap gene analysis,1.000
same,"TMPRSS2 RNA expression, ratio of treated cells to control cells",TMPRSS2; DriverMap gene analysis,1.000
same,"CCL2 RNA expression, ratio of treated cells to control cells",CCL2; DriverMap gene analysis,0.059
same,"IL1B RNA expression, ratio of treated cells to control cells",IL1B; DriverMap gene analysis,0.010
same,"ILIA RNA expression, ratio of treated cells to control cells",ILIA; DriverMap gene analysis,0.260
same,"TNFRSF9 RNA expression, ratio of treated cells to control cells",TNFRSF9; DriverMap gene analysis,0.007
same,"TNFRSF1A RNA expression, ratio of treated cells to control cells",TNFRSF1A; DriverMap gene analysis,0.752
same,"CXCL8 RNA expression, ratio of treated cells to control cells",CXCL8; DriverMap gene analysis,0.0052
same,Duration of the effect on edema,[1]; 24-hour period of observation,≥ 24 h
same,"Edema, change in paw volume after CAR injection",[1],marked decrease in edema within two hours
same,"IL6 RNA expression, ratio of treated cells to control cells",IL6; DriverMap gene analysis,0.057
same,"NFKB1 RNA expression, ratio of treated cells to control cells",NFKB1; DriverMap gene analysis,0.243
same,"CCL5 RNA expression, ratio of treated cells to control cells",CCL5; DriverMap gene analysis,0.0003
same,"TNF RNA expression, ratio of treated cells to control cells",TNF; DriverMap gene analysis,0.015
"ANVAENA [PEP1, L-alanyl-L-asparaginyl-L-valyl-L-alanyl-L-glutamyl-L-asparaginyl-L-alanine]","NFKB2 RNA expression, ratio of treated cells to control cells",NFKB2; Affymetrix gene arrays,0.851
same,"ACE2 receptor RNA expression, ratio of treated cells to control cells",ACE2 receptor; Affymetrix gene arrays,0.632
same,"TMPRSS2 RNA expression, ratio of treated cells to control cells",TMPRSS2; Affymetrix gene arrays,0.525
same,"CCL2 RNA expression, ratio of treated cells to control cells",CCL2; Affymetrix gene arrays,1.298
same,"IL1B RNA expression, ratio of treated cells to control cells",IL1B; Affymetrix gene arrays,0.691
same,"ILIA RNA expression, ratio of treated cells to control cells",ILIA; Affymetrix gene arrays,0.036
same,"TNFRSF9 RNA expression, ratio of treated cells to control cells",TNFRSF9; Affymetrix gene arrays,1.136
same,"TNFRSF1A RNA expression, ratio of treated cells to control cells",TNFRSF1A; Affymetrix gene arrays,1.415
same,"CXCL8 RNA expression, ratio of treated cells to control cells",CXCL8; Affymetrix gene arrays,1.135
same,"Edema, change in paw volume after CAR injection",[1],nearly identical data
same,"IL6 RNA expression, ratio of treated cells to control cells",IL6; Affymetrix gene arrays,1.135
same,"NFKB1 RNA expression, ratio of treated cells to control cells",NFKB1; Affymetrix gene arrays,0.927
same,"CCL5 RNA expression, ratio of treated cells to control cells",CCL5; Affymetrix gene arrays,0.456
same,"TNF RNA expression, ratio of treated cells to control cells",TNF; Affymetrix gene arrays,0.349
